# What was measured:
# [1] = system: human mucoepidermoid pulmonary carcinoma cell line NCI-H292; assay: Mucin secretion (MUC4, MUC5AC) by ELISA in NCI-H292 cells; format: cell-based; conditions: 24 hours, read-out: % increase in mucin secretion vs. non-treated control group; for activation at 20 µg/mL: 20 μg/mL; for activation at 100 µg/mL: 100 μg/mL; for activation at 0.8 µg/mL: 0.8 μg/mL; for activation at 4 µg/mL: 4 μg/mL
# Description: 2×10^5 cells/well of the human mucoepidermoid pulmonary carcinoma cell line NCI-H292 (ATCC, #CRL-1848) were seeded on a 96-well plate, and treated with 3′,4′,5-trimethoxy flavone derivatives at various concentrations of 0.16 to 100 μg/mL for 24 hours. Thereafter, secretion levels of representative transmembrane mucin MUC4 and secretory mucin MUC5AC were measured by enzyme-linked immunosorbent assay (ELISA).
# [2] = system: rabbit model of dry eye syndrome; assay: Rose Bengal assay of ocular surface damage in N-acetylcysteine-induced rabbit dry eye syndrome model; format: in vivo, New Zealand White (NZW) rabbits; conditions: 0.5% solution instilled into conjunctival sac 4 times/day (0.1 mL) for seven days; Mean ± S.D.
# Description: (§1) Male New Zealand White (NZW) rabbits were randomly assigned into two groups, each consisting of 5 animals. In order to induce dry eye syndrome, N-acetylcysteine was first dissolved at a concentration of 20% in physiological saline. Then, the rabbit's lower eyelid was pulled slightly away from the globe to form a cup shape and the above-prepared N-acetylcysteine solution was instilled into the conjunctival sac six times every 2 hours, resulting in establishment of an animal model of dry eye syndrome. 3′,4′,5-trimethoxy flavone derivatives were dissolved at a concentration of 0.5% in a 0.1N sodium hydroxide solution which was then titrated to pH 7.0 to 8.0 with 10% acetic acid. From the following day after induction of dry eye syndrome, the titrated 3′,4′,5-trimethoxy flavone derivatives were repeatedly instilled into conjunctival sacs of animals at a dose frequency of 4 times/day (0.1 mL/each time) for seven consecutive days. On the next day following the induction of dry eye syndrome and upon completion of the experiment, the degree of ocular surface damage was evaluated to calculate a damage decrease rate (%) using Rose Bengal assay, and mucus secretion in the conjunctiva was quantitatively analyzed using Alcian blue assay. More specifically referring to Rose Bengal assay, 10 μl of a 1% Rose Bengal solution was dropped into the eyes of animals, and distribution and intensity of Rose Bengal staining were scored according to the method disclosed in Urashima et al., Cornea, 23:613-9, 2004. For Alcian blue assay, the rabbit's conjunctivae were excised, weighed, stained with a 0.1% Alcian blue solution for 2 hours and then washed with a 0.25 M sucrose solution. Following extraction with a 0.5 M magnesium chloride solution, the absorbance was measured at 605 nm.
# [3] = system: rabbit model of dry eye syndrome; assay: Alcian blue assay of conjunctival mucus secretion in N-acetylcysteine-induced rabbit dry eye syndrome model; format: in vivo, New Zealand White (NZW) rabbits; conditions: 0.5% solution instilled 4 times/day (0.1 mL) for seven days; conjunctiva, absorbance at 605 nm; Mean ± S.D.
# Description: as §1
SMILES,activation at 20 µg/mL [1],activation at 100 µg/mL [1],Rose Bengal Assay Damage decrease rate (%) [2],Alcian Blue Assay Absorbance/g tissue [3],activation at 0.8 µg/mL [1],activation at 4 µg/mL [1]
"COc1ccc(-c2cc(=O)c3c(OC)cc(OCC(=O)NC#N)cc3o2)cc1OC [Example 4, 7-{(N-cyanocarbamoyl)-methyloxy}-3′,4′,5-trimethoxy flavone]",4.3%,25.2%,83.8 ± 4.6 %,0.24 ± 0.19 Absorbance/g tissue,,
"COc1ccc(-c2cc(=O)c3c(OC)cc(OCC(N)=O)cc3o2)cc1OC [Example 3, 7-{(carbamoyl)methyloxy}-3′,4′,5-trimethoxy flavone]",10.4%,15.8%,,,2.2%,6.6%
"COc1ccc(-c2cc(=O)c3c(OC)cc(OCC(=O)NS(=O)(=O)c4ccccc4)cc3o2)cc1OC [Example 5, 7-{(N-benzenesulfonylcarbamoyl)methyloxy}-3′,4′,5-trimethoxy flavone]",35.4%,70.9%,70.1 ± 5.2 %,0.32 ± 0.09 Absorbance/g tissue,43.9%,45.4%
"COc1ccc(-c2cc(=O)c3c(OC)cc(OCc4nnn[nH]4)cc3o2)cc1OC [Example 1, 7-(tetrazol-5-ylmethyloxy)-3′,4′,5-trimethoxy flavone]",57.8%,52%,,,18.7%,28.1%
"COc1ccc(-c2cc(=O)c3c(OC)cc(OCC(=O)NC(C)=O)cc3o2)cc1OC [Example 12, 7-{(acetylcarbamoyl)methyloxy}-3′,4′,5-trimethoxy flavone]",20.5%,30.2%,,,15.2%,13.6%
"COc1ccc(-c2cc(=O)c3c(OC)cc(OCC(=O)NS(C)(=O)=O)cc3o2)cc1OC [Example 9, 7-{(methylsulfonylcarbamoyl)methyloxy}-3′,4′,5-trimethoxy flavone]",37.4%,43.3%,76.8 ± 8.4 %,0.35 ± 0.13 Absorbance/g tissue,9.7%,15.9%
"COc1ccc(-c2cc(=O)c3c(OC)cc(OCC(=O)NC(N)=O)cc3o2)cc1OC [Example 10, 7-{(carbamylcarbamoyl)methyloxy}-3′,4′,5-trimethoxy flavone]",15.4%,25.9%,,,,6.7%
"COc1ccc(-c2cc(=O)c3c(OC)cc(OCC(=O)O)cc3o2)cc1OC.O [7-carboxymethyloxy-3′,4′,5-trimethoxy flavone monohydrate]",52.5%,75.9%,88.5 ± 4.7 %,0.38 ± 0.08 Absorbance/g tissue,24.8%,39.1%
"COc1ccc(-c2cc(=O)c3c(OC)cc(OCC(=O)NS(N)(=O)=O)cc3o2)cc1OC [Example 8, 7-{(aminosulfonylcarbamoyl)methyloxy}-3′,4′,5-trimethoxy flavone]",15.4%,21.4%,,,4.4%,10.2%

# From patent US8203011B2, “3′,4′,5-trimethoxy flavone derivatives as stimulant of mucus secretion, method for the same, and pharmaceutical composition comprising the same” (Dong-A Pharm. Co., Ltd., priority 2007, dated 2012)
